Assay results taken from patent publication US8709506B2, “Synergistic compositions for the treatment of topical viral infections” (Vitro Bio Sarl, priority 2010, dated 2014).

Assays:
influenza virus = format: cell-based; details: for % cell death after 72 h TCID50 influenza virus infection: protease 0.5 μg/ml, MDCK cells, serum free medium, virus control 48.21 ± 6.77
herpes virus = format: cell-based; details: for % cell death after 72 h TCID50 herpes virus infection: protease 0.5 μg/ml, Vero cells, serum free medium, virus control 56.0 ± 2.3

With “MMP-1: purified human MMP 1 (interstitial and fibroblast collagenase), AnaSpec” the “% increase in influenza viral growth compared to virus control” value (“% increase in influenza viral growth” below) (influenza virus) was “+63.87%”, the “% cell death after 72 h TCID50 influenza virus infection” value (influenza virus) was 47.76 ± 7.26% and the “% increase in herpes virus growth compared to controls” value (“% increase in herpes virus growth” for short) (herpes virus) was “+8.43%”. For the same substance, the “% cell death after 72 h TCID50 herpes virus infection” value (herpes virus) was 66.32 ± 7.11%.

In the case of “MMP-3: purified human MMP 3 (stromelysin-1), AnaSpec”, the “% increase in influenza viral growth” value (influenza virus) is reported as −8.49%, the “% increase in herpes virus growth” value (herpes virus) is reported as “+7.57%” and the “% cell death after 72 h TCID50 herpes virus infection” value (herpes virus) is reported as 64.16 ± 4.29%.

“MMP-7: purified human MMP7 (proenzyme), AnaSpec” was tested, and the “% increase in influenza viral growth” value (influenza virus) was “+50.92%”, the “% cell death after 72 h TCID50 influenza virus infection” value (influenza virus) was 72.76 ± 5.96% and the “% increase in herpes virus growth” value (herpes virus) was “+1.96%”. For the same substance, the “% cell death after 72 h TCID50 herpes virus infection” value (herpes virus) was 57.10 ± 6.68%.

With “MMP-10: purified human MMP-10 (stromelysin 2), AnaSpec” the “% increase in influenza viral growth” value (influenza virus) was “+8.26%”, the “% cell death after 72 h TCID50 influenza virus infection” value (influenza virus) was 52.19 ± 7.56% and the “% increase in herpes virus growth” value (herpes virus) was “+25.82%”. The “% cell death after 72 h TCID50 herpes virus infection” value (herpes virus) was 70.46 ± 5.41%.
